Test results as given in PMC5374710, “Discovery of the first dual GSK3β inhibitor/Nrf2 inducer. A new multitarget therapeutic strategy for Alzheimer’s disease” (Scientific Reports, 2017).

Key:
Format in all cases: cell-based, rat
TNFα = TNFα release induced by LPS in mixed glial cells (ELISA); settings: LPS 1 μg/mL
Description: (§1) TNFα is considered one of the most important pro-inflammatory cytokines. […] The production of TNFα induced by LPS was reduced by 33% at 10 μM and by 50% at 30 μM. […] To further confirm the anti-inflammatory potential of compound 5c we measured the expression of thre NOX2 enzyme, since this isoform has been widely described as being specific tomicroglial cells. As depicted in Fig. 6F, LPS (1 μg/mL) stimulation of primary glial cultures during 24 h increased the expression of NOX2 by 65.3% (p < 0.01) compared to basal conditions.
(§2) Figure 6 Nitrites (A), TNFα (B), iNOS (C) and NOX activity (E) blockade (D) and NOX2 production (F) by 5c in primary glial cultures stimulated with LPS (1 μg/mL), HO-1 expression induced by this compound after 24 h. […] NOX activity was measured after 4 h co-treatment with LPS and compound 5c. […]
Tumor necrosis factor-alpha (TNFα) concentrations were measured by specific quantitative sandwich ELISA kits (Preprotech, R&D Systems-bioNova, Madrid, Spain) following manufacturer instructions. TNFα levels in supernatant samples, obtained after treatments with culture media (Basal), LPS or LPS co-incubated with increasing concentrations of compound 5c, were measured following manufacturer instructions. […] Light absorption was measured in a microplate reader (Labtech, Offenburg, Germany). […]

NOX2 = NOX2 expression in LPS-stimulated primary glial cultures (western blot); settings: 30 μM, LPS 1 μg/mL 24 h (LPS alone 65.3%)
Description: as §1, §2
(§3) After treatment, mixed glial cells were washed with cold PBS and lysed in 100 μl ice-cold lysis buffer (1% Nonident P-40, 10% glycerol, 137 mM NaCl, 20 mM Tris HCl pH 7.5, 1 μg/ml leupeptin, 1 mM phenylmethylsulfonyl fluoride, 20 mM NaF, 1 mM sodium pyrophosphate, and 1 mM Na3VO4). […] Peroxidase-conjugated secondary antibodies (1:10000) were used to detect proteins by enhanced chemiluminescence detected by Advance Western-blotting Detection Kit (GE Healthcare, Barcelona, Spain). […]

iNOS = iNOS expression in LPS-stimulated glial cultures (western blot); settings: 30 μM, LPS 1 μg/mL
Description: as §1, §2, §3

COc1cccc(C2C(C#N)=C(N)Oc3n[nH]c(C)c32)c1 (stereo not shown) [Compound 5c, 6-Amino-4-(3-methoxyphenyl)-3-methyl-2,4-dihydropyrano[2,3-c]pyrazole-5-carbonitrile]
Reduction of TNFα production induced by LPS (TNFα; 10 μM): 33% | Reduction of TNFα production induced by LPS (TNFα; 30 μM): 50% | NOX2 expression increase compared to basal conditions in presence of LPS (NOX2): 11.1% | Reduction of iNOS expression (iNOS): almost completely
